From US11192888B2, “Antibacterial compounds” (priority 2017, dated 2021)
≈ marks a conversion by molar mass, not a printed value. Where “and” joins values, the source holds several entries; their conditions need not be identical. Equal values may be shown once. Read-outs that look alike come from different tables or passages of the source. *1 amine or outer side, *2 acyl side, *3 side chain or, on linkers, in order; H or OH if unused. Where a SMILES comes first, the peptide text is derived from it. [ ]: non-standard residue; d: D form. dAla(ψthiazole) = C[C@@H](N[*:1])c1nc(C(=O)[*:2])cs1; Trp(4-Br) = N[C@@H](Cc1c[nH]c2cccc(Br)c12)C(=O)O; Dhb = C/C=C(\N)C(=O)O; Sar = CNCC(=O)O

Experiments:
[1] = system: Staphylococcus aureus ATCC 29213
[2] = system: C. difficile BI1 (BI/NAP1, ribotype 027); assay: Hamster model of C. difficile-associated disease; assay type: in vivo, Golden Syrian hamsters
[3] = system: 23 representatives of normal gut flora; assay: CLSI MIC, whole panel of representative gut bacteria; assay type: cell-based; settings: at 64 μg/mL
[4] = system: Corynebacterium urealyticum NCTC 12011
[5] = system: Clostridium innocuum DSM 1286
[6] = system: Clostridium difficile strains (21 clinical, 7 reference)
Clostridium scindens = assay: Growth of Clostridium scindens (separate study); assay type: cell-based; settings: at 80.0 μg/mL
Description: It is known that the presence of Clostridium scindens in the gut can help to keep Clostridium difficile at bay. […] This would not be the case if a broad-spectrum antibiotic, such as vancomycin or metronidazole, was to be used. The lack of activity against Clostridium scindens would, therefore, further help the gut to recover from Clostridium difficile infection.

[7] = system: Enterococcus faecalis ATCC 29212
[8] = system: Enterobacter cloacae NCTC 13406
[9] = system: Proteus mirabilis DSM 30116
[10] = system: Actinomyces viscosus DSM 43327
[11] = system: Propionibacterium acnes ATCC 6919
[12] = system: Clostridium perfringens NCTC 8237
[13] = system: Citrobacter koseri Clinical
[14] = system: Escherichia coli ATCC 25922
[15] = system: C. difficile ATCC 43255 (aka VPI 10463; ribotype 087); assay: Mouse model of C. difficile-associated disease; assay type: in vivo, C57BL/6 mice
[16] = system: Corynebacterium striatium NCTC 764
[17] = system: Bifidobacterium breve ATCC 15700
[18] = system: Clostridium difficile ATCC 43255; assay: CLSI MIC, representative gut bacteria; assay type: cell-based
Method: (§1) Comparative in vitro bacterial susceptibility to compounds 3, 9 and 10, vancomycin and metronidazole was determined using methods according to the Clinical and Laboratory Standard Institute (CLSI) approved guidelines (M7-A10, M11-A7 or M45-A2) for anaerobic and aerobic organisms.

[19] = system: Clostridium sordellii ATCC 9714; assay: CLSI MIC, representative gut bacteria; assay type: cell-based
Method: as §1

[20] = system: Bacteroides fragilis ATCC 25285; settings: Bacteroides fragilis, ATCC25285
[21] = mice
Method: In this study, a single oral dose of compound 3 in 0.5% w/v aqueous methylcellulose at 5 mg/kg was administered to nine mice in a 10 mL/kg dosing volume and housed in metabolism cages. Following administration of the compound, serial blood samples of 50 μL was taken from the lateral tail vein at each of 7 post-dosing time-points (0.25, 0.5, 1, 2, 4, 7 and 24 h). Whole blood samples were then diluted 1:1 with water and two 40 μL aliquots were pipetted into duplicate 96 well plate tubes. At the end of 24 h, all faecal samples were collected and pooled. A quantitative bioanalysis by LC-MS/MS of the blood and faecal levels of compound 3 was carried out to determine the oral absorbability and gastrointestinal metabolic stability of compound 3.
To evaluate the metabolic stability of orally administered compound 3, metabolite profiling of the faecal sample was performed.

[22] = system: Enterococcus faecium NCTC 12204

## C/C=C1\NC(=O)[C@@H](C)NC(=O)CNC(=O)[C@H](Cc2c[nH]c3cccc(Br)c23)NC(=O)[C@H](Cc2c[nH]c3ccccc23)NC(=O)c2csc(n2)[C@@H](C)NC(=O)CN(C)C1=O [Compound 10, Cyclo[D-Ala-Thz-Trp-Trp(4-Br)-Gly-D-Ala-Dhb-Sar]] (cyclo([Dhb][Sar][dAla(ψthiazole)]W[Trp(4-Br)]G[dA]))
[1]
  MIC: >64 µg/mL
[2]; 0.2 mg/kg
  hamsters that succumbed to the disease within 36 hours post-infection: 100%
[2]; 0.2 mg/kg oral twice daily for 5 days
  Mean survival: 35.75 h
[2]; 1.0 mg/kg and 2.5 mg/kg twice daily
  animals reaching the end of the study at day-21 post-infection: 10%
[2]; 1.0 mg/kg oral twice daily for 5 days
  Mean survival: 155 h and 154.63 h
[2]; 1.0 mg/kg twice daily
  average survival: 6.5 days
  increase in survival time compared to vehicle control: 4.7 fold
[2]; 2.5 mg/kg oral twice daily for 5 days
  Mean survival: 206 h and 205.92 h
[2]; 2.5 mg/kg twice daily
  average survival: 8.5 days
  increase in survival time compared to vehicle control: 6.3 fold
  survival at day 6 post-infection: 100%
[2]; 0.2, 1.0 and 2.5 mg/kg, non-optimised doses
  survival time compared to the vehicle control: significant dose dependent increase in survival time
[3]
  share of the 23 representatives of normal gut flora that are insensitive: Approximately 90%
[4]
  MIC: >64 µg/mL
[5]
  MIC: >64 µg/mL
[6]; 28 C. difficile strains
  MIC40: 0.25 µg/mL (≈ 0.282 µM)
  MIC50: 0.50 µg/mL (≈ 0.563 µM)
  MIC90: 0.50 µg/mL (≈ 0.563 µM)
[6]; C. difficile strain 630 (ribotype 012)
  MIC: 0.25 µg/mL (≈ 0.282 µM)
[6]; C. difficile strain ATCC 9689 (ribotype 001)
  MIC: 0.5 µg/mL (≈ 0.563 µM)
[6]; C. difficile strain ATCC 13366
  MIC: 1 µg/mL (≈ 1.13 µM)
[6]; C. difficile strain ATCC 43255
  MIC: 0.25 µg/mL (≈ 0.282 µM)
[6]; C. difficile strain ATCC 700057 (ribotype 038)
  MIC: 0.25 µg/mL (≈ 0.282 µM)
[6]; C. difficile strain ATCC BAA 1875 (ribotype 078)
  MIC: 0.5 µg/mL (≈ 0.563 µM)
[6]; C. difficile strain BI1-FDX^R
  MIC: 0.25 µg/mL (≈ 0.282 µM)
[6]; C. difficile strain Clin. 1
  MIC: 0.25 µg/mL (≈ 0.282 µM)
[6]; C. difficile strain Clin. 2
  MIC: 0.5 µg/mL (≈ 0.563 µM)
[6]; C. difficile strain Clin. 3
  MIC: 0.25 µg/mL (≈ 0.282 µM)
[6]; C. difficile strain Clin. 5
  MIC: 0.5 µg/mL (≈ 0.563 µM)
[6]; C. difficile strain Clin. 6
  MIC: 0.5 µg/mL (≈ 0.563 µM)
[6]; C. difficile strain Clin. 7
  MIC: 0.25 µg/mL (≈ 0.282 µM)
[6]; C. difficile strain Clin. 8
  MIC: 0.5 µg/mL (≈ 0.563 µM)
[6]; C. difficile strain Clin. 9
  MIC: 0.5 µg/mL (≈ 0.563 µM)
[6]; C. difficile strain Clin. 10
  MIC: 0.25 µg/mL (≈ 0.282 µM)
[6]; C. difficile strain Clin. 11
  MIC: 0.5 µg/mL (≈ 0.563 µM)
[6]; C. difficile strain Clin. 12
  MIC: 0.25 µg/mL (≈ 0.282 µM)
[6]; C. difficile strain Clin. 13
  MIC: 0.5 µg/mL (≈ 0.563 µM)
[6]; C. difficile strain Clin. 14
  MIC: 0.5 µg/mL (≈ 0.563 µM)
[6]; C. difficile strain Clin. 15
  MIC: 0.5 µg/mL (≈ 0.563 µM)
[6]; C. difficile strain Clin. 16
  MIC: 0.25 µg/mL (≈ 0.282 µM)
[6]; C. difficile strain Clin. 18
  MIC: 0.5 µg/mL (≈ 0.563 µM)
[6]; C. difficile strain Clin. 20
  MIC: 0.25 µg/mL (≈ 0.282 µM)
[6]; C. difficile strain Clin. 21
  MIC: 0.5 µg/mL (≈ 0.563 µM)
[6]; C. difficile strain Clin. 22
  MIC: 0.5 µg/mL (≈ 0.563 µM)
[6]; C. difficile strain Clin. 23
  MIC: 0.5 µg/mL (≈ 0.563 µM)
[6]; C. difficile strain Clin. 24
  MIC: 0.25 µg/mL (≈ 0.282 µM)
[6]; at 0.25 μg/mL
  share of the C. difficile strains tested that are susceptible: 43%
[6]; range over strains
  MIC against C. difficile: 0.25 to 0.50 µg/mL
Clostridium scindens
  growth of Clostridium scindens: unaffected
[7]
  MIC: >64 µg/mL
[8]
  MIC: >64 µg/mL
[9]
  MIC: >64 µg/mL
[10]
  MIC: 8 µg/mL (≈ 9.01 µM)
[11]
  MIC: >64 µg/mL
[12]
  MIC: 64 µg/mL (≈ 72.1 µM)
[13]
  MIC: >64 µg/mL
[14]
  MIC: >64 µg/mL
[15]; 1 mg/kg
  survival to the end of the study at day-21 post-infection: 80%
[15]; 1 mg/kg oral BD for 5 days
  Mean survival: 504.00 h
[15]; 2.5 mg/kg
  survival to the end of the study at day-21 post-infection: 70%
[15]; 2.5 mg/kg oral BD for 5 days
  Mean survival: 504.00 h
[15]; 5 mg/kg
  reduction in C. difficile spore burden in the caecum vs vehicle controls: 1.73 Log10 spore/mL
  reduction in C. difficile spore burden in the colon vs vehicle controls: 1.11 Log10 spore/mL
  survival to the end of the study at day-21 post-infection: 90%
[15]; 5 mg/kg oral BD for 5 days
  Mean survival: 504.00 h
[16]
  MIC: >64 µg/mL
B. multivorans ATCC17616; ATCC17616, 25 h
  IC50: 840 ± 100 nM
B. multivorans ATCC17616; against B. multivorans
  times more potent than Argyrin A: 4 to 5
[17]
  MIC: >64 µg/mL
[18]
  fold more potent against C. difficile ATCC 43255 compared to Bacteroides fragilis: at least 256 fold
[18]; Clostridium difficile ATCC 43255
  MIC: 0.25 µg/mL (≈ 0.282 µM)
[19]
  MIC: 1.0 µg/mL (≈ 1.13 µM)
[20]
  MIC: > 64 µg/mL
P. aeruginosa PAO1; PAO1
  activity against P. aeruginosa in comparison to the Dha containing compound 3: three-fold increase in activity
P. aeruginosa PAO1; PAO1, 13 h
  IC50: 3700 ± 1000 nM
P. aeruginosa PAO1; PAO1, 13 h, 100
  % Growth inhibition at 100 μM: 90.6 ± 1.3%
P. aeruginosa PAO1; against P. aeruginosa
  times more potent than Argyrin A: 4 to 5
[21]; oral 5 mg/kg, 24 h
  compound recovered from pooled faeces: up to 90%
[21]; single 5 mg/kg oral dose
  faecal concentration, times above the MIC against C. difficile: more than 200
[22]
  MIC: >64 µg/mL
